Data: patent US20240025862A1, “SUBSTITUTED N-PHENYLURACILS AND SALTS THEREOF, AND USE THEREOF AS HERBICIDAL ACTIVE SUBSTANCES” (Bayer Aktiengesellschaft, priority 2020, published 2024)

How the values were obtained:
Type in all cases: in vivo
[1] = system: Veronica persica (VERPE); assay: Post-emergence herbicidal action, greenhouse pot test
Method in brief: (§1)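 Greenhouse-grown weeds in sandy loam were sprayed post-emergence at the one-leaf stage, 2–3 weeks after sowing. Compounds were formulated as WP or EC in water with 0.5% additive at 600 l/ha, at rates of 20 g/ha or less. Visual rating after about 3 weeks used a scale from 0% (like untreated control) to 100% (plants dead).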

[2] = system: Polygonum convolvulus (POLCO); assay: as above
Method in brief: as §1

[3] = system: Viola tricolor (VIOTR); assay: as above
Method in brief: as §1

[4] = system: Amaranthus retroflexus (AMARE); assay: as above; details: rated visually after about 3 weeks vs untreated controls, 100% = plants have died
Method in brief: as §1

[5] = system: Pharbitis purpurea (PHBPU); assay: as above
Method in brief: as §1

[6] = system: Stellaria media (STEME); assay: as above
Method in brief: as §1

[7] = system: Abutilon theophrasti (ABUTH); assay: as above; details: rated visually after about 3 weeks vs untreated controls, 100% = plants have died
Method in brief: as §1

[8] = system: Setaria viridis (SETVI); assay: Post-emergence herbicidal action, greenhouse pot test (also comparative test C); details: for Post-emergence action against SETVI: 20 g/ha
Method in brief: (§2)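 Greenhouse pot plants in sandy loam were sprayed post-emergence at the one-leaf stage (2–3 weeks after sowing) with WP or EC formulations plus 0.5% additive at 600 l/ha water. Activity was rated visually after about 3 weeks versus untreated controls (100% = dead, 0% = like control); rates were 20 g/ha or less, and 5 g/ha or less in the comparative test.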

[9] = system: Echinochloa crus-galli (ECHCG); assay: as above; details: dosage 20 g/ha
Method in brief: as §2

[10] = system: Matricaria inodora (MATIN); assay: as above
Method in brief: as §2

[11] = system: Alopecurus myosuroides (ALOMY); assay: as above; details: 20 g/ha, rated visually after about 3 weeks vs untreated controls, 100% = plants have died
Method in brief: as §2

[12] = system: Oryza sativa (ORYSA); assay: Post-emergence crop plant compatibility, greenhouse pot test (also comparative test C); details: for Post-emergence action against ORYSA (crop plant compatibility): vs untreated controls
Method in brief: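 Rice and other crops sprayed post-emergence at one-leaf stage (2–3 weeks after sowing) with WP or EC formulations plus 0.5% additive at 600 l/ha water. Visual rating about 3 weeks later versus untreated controls (100% = dead, 0% = like control); suffixes a–c denote different doses.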

[13] = system: Triticum aestivum (TRZAS); assay: Post-emergence crop plant compatibility, greenhouse pot test; details: vs untreated controls
Method in brief: (§3)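 Greenhouse-grown crop plants sprayed post-emergence at the one-leaf stage with WP or EC formulations plus 0.5% additive, at 600 l/ha water. Damage rated visually after about 3 weeks versus untreated controls (0% = like control, 100% = dead); suffixes a/b/c denote different dosages.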

[14] = system: Glycine max (GLXMA); assay: as above
Method in brief: as §3

[15] = system: Brassica napus (BRSNW); assay: as above; details: 1.25 g/ha, vs untreated controls
Method in brief: as §3

SMILES	Post-emergence action against VERPE ([1]; 1.25 g/ha)	Post-emergence action against VERPE ([1]; 5 g/ha)	Post-emergence action against VERPE ([1]; 20 g/ha)	Post-emergence action against POLCO in % ([2]; dosage 5 g/ha)	Post-emergence action against POLCO in % ([2]; dosage 20 g/ha)	Post-emergence action against VIOTR ([3]; 1.25 g/ha)	Post-emergence action against VIOTR ([3]; 5 g/ha)	Post-emergence action against VIOTR ([3]; 20 g/ha)	Post-emergence action at 1.25 g/ha against AMARE in % [4]	Post-emergence action at 5 g/ha against AMARE in % [4]	Post-emergence action at 20 g/ha against AMARE in % [4]	Post-emergence action against PHBPU in % ([5]; dosage 1.25 g/ha)	Post-emergence action against PHBPU in % ([5]; dosage 5 g/ha)	Post-emergence action against PHBPU in % ([5]; dosage 20 g/ha)	Post-emergence action against STEME ([6]; 5 g/ha)	Post-emergence action against STEME ([6]; 20 g/ha)	Post-emergence action at 5 g/ha against ABUTH in % [7]	Post-emergence action at 20 g/ha against ABUTH in % [7]	Post-emergence action against SETVI [8]	Post-emergence action against SETVI in % ([8]; dosage 1.25 g/ha)	also measured
CCOCCOC(=O)C(C)Oc1ccccc1Sc1cc(-n2c(=O)cc(C(F)(F)F)n(C)c2=O)c(F)cc1Cl (racemic) [I.2-2]	100%	100%	100%	100%	100%	100%	100%	100%	100%	100%	100%	100%	100%	100%	100%	100%	100%	100%	100%	100%	Post-emergence action at 1.25 g/ha against ABUTH in % ([7]; 1.25 g/ha): 80%; Post-emergence action against SETVI in % ([8]; dosage 5 g/ha): 100%; Post-emergence action against ECHCG in % [9]: 90%; Post-emergence action against MATIN in % ([10]; dosage 5 g/ha): 80%; Post-emergence action against MATIN in % ([10]; dosage 20 g/ha): 100%; Post-emergence action at 20 g/ha against ALOMY in % [11]: 80%; Post-emergence action against ORYSA (crop plant compatibility) ([12]; 1.25 g/ha): 10%; Post-emergence action against ORYSA (crop plant compatibility) ([12]; 5 g/ha): 10%; Post-emergence action against ORYSA in % ([12]; 20 g/ha, crop plant compatibility): 20%; Post-emergence action against TRZAS (crop plant compatibility) ([13]; 1.25 g/ha): 20%; Post-emergence action against TRZAS (crop plant compatibility) ([13]; 5 g/ha): 20%; Post-emergence action against GLXMA in % ([14]; 1.25 g/ha): 0%; Post-emergence action against GLXMA in % ([14]; 5 g/ha): 0%; Post-emergence action against GLXMA in % ([14]; 20 g/ha): 10%; Post-emergence action against BRSNW (crop plant compatibility) [15]: 10%
CC(Oc1ccccc1Sc1cc(-n2c(=O)cc(C(F)(F)F)n(C)c2=O)c(F)cc1Cl)C(=O)OCC1CCCO1 (mixture of isomers) [I.2-71]	100%	100%	100%	100%	100%	100%	100%	100%	100%	100%	100%	80%	100%	100%	100%	100%	100%	100%	100%	90%	Post-emergence action against SETVI in % ([8]; dosage 5 g/ha): 100%; Post-emergence action against ECHCG in % [9]: 80%; Post-emergence action against MATIN in % ([10]; dosage 5 g/ha): 80%; Post-emergence action against MATIN in % ([10]; dosage 20 g/ha): 90%; Post-emergence action at 20 g/ha against ALOMY in % [11]: 80%; Post-emergence action against ORYSA (crop plant compatibility) ([12]; 1.25 g/ha): 20%; Post-emergence action against ORYSA (crop plant compatibility) ([12]; 5 g/ha): 20%; Post-emergence action against TRZAS (crop plant compatibility) ([13]; 1.25 g/ha): 20%; Post-emergence action against TRZAS (crop plant compatibility) ([13]; 5 g/ha): 20%; Post-emergence action against GLXMA in % ([14]; 1.25 g/ha): 10%; Post-emergence action against BRSNW (crop plant compatibility) [15]: 10%
